Values of other authors as cited in patent publication US20260097000A1, “INTRANASAL DELIVERY OF CANNABINOIDS” (priority 2022, published 2026).

Key:
[1] = oral delivery
[2] = rats, oral 10 mg kg^−1 and pulmonary 20 mg kg^−1

Q: What does the source list for `C=C(C)[C@@H]1CCC(C)=C[C@H]1c1c(O)cc(CCCCC)cc1O` [CBD, cannabidiol]?
A: 7-hydroxy-cannabidiol (7-OH-CBD) metabolite share of orally delivered CBD [1]: 40%; CBD levels in the brain [2]: 200 to 300 ng/g
